The source of these data is US9353067B2, “Heterocyclic compounds and uses thereof in the treatment of sexual disorders” (ATIR Holding S.A., priority 2011, dated 2016).

The target in data set [1] is PARP-1 (Homo sapiens (Human), UniProt P09874). The data set is described as follows: Universal Chemiluminescent PARP Assay. To be noted: average results from two assays. Format: biochemical. The protocol:
In addition, R-55 and its hydrochloride salt were assayed for PARP (poly(ADP-ribose)polymerase) inhibitory activity, as some quinazolinone derivatives, particularly derivatives comprising quinazolinone linked via a three-carbon moiety to substituted pyridinyl and piperazinyl moieties, have been identified as potent PARP inhibitors [U.S. Patent Application Publication No. 2004/0077667; Iwashita et al., FEBS Lett 579:1389-1393(2005); Hattori et al., J Med Chem 47:4151-4154(2004)]. PARP plays a natural role in repair of DNA damage, and inhibition of PARP may lead to undesirable side effects in any treatment of a sexual disorder.
Inhibition of PARP-1 was assayed using a Universal Chemiluminescent PARP Assay (Trevigen, Inc.).
The tested compounds were diluted from 2.1 mg of powder in 25 μl of DMSO. The tested compounds were diluted to 100 μM in 1% DMSO/99% ethanol. 3-Aminobenzamide (3-AB), a commercially available weak PARP inhibitor, was used as a positive control. The activity of PARP was quantified as relative light units (RLU). Each of the tested compounds was assayed twice.
In Assay 1, the 100 μM stock solution was diluted to 40 μM in 1×PARP buffer. The compounds were then serially diluted down to 0.4 μM. Each tested compound was
further diluted 1:4 during the assay, so the final concentrations ranged from 10 μM to 0.1 μM.
In Assay 2, the 100 μM stock was added to 1×PARP buffer to prepare samples with concentrations ranging from 40 μM to 2 μM. A 10 μM stock solution was added to 1×PARP buffer to prepare samples with concentrations of 1 μM and 0.4 μM. Each tested compound was further diluted 1:4 during the assay, so the final concentrations ranged from 10 μM to 0.1 μM.

The nature of data set [2]: Hydrolysis (half-life) of esterified derivatives of R-55 in rat plasma. It counts as in vitro ADME. Conditions: 37° C.; for half-life at 0.19 mg/ml: fresh rat plasma, hydrolysis of ester to R-55, rat plasma, read-out: T1/2 in rat plasma; for % L-207 (hydrolysis of L-207 to R-55): rat plasma. The protocol: (§1) 50 μl of dimethyl sulfoxide containing 0.2 mg of the tested derivative was added to 1 ml of fresh plasma (human or rat) in a sterile Eppendorf tube. The samples were then incubated at 37° C., and 100 μl samples were removed at various times, up to 120 minutes after incubation. The plasma samples were immediately added to 1 ml acetonitrile. After vigorous mixing by vortex, the samples were centrifuged for 10 minutes at 2000 rotations per minute at 4° C. 0.95 ml of the supernatant was then removed and stored at −20° C. until determination of the concentrations of R-55 and its esterified derivative by LCMS analysis.

The nature of data set [3]: Hydrolysis (half-life) of esterified derivatives of R-55 in human plasma. It counts as in vitro ADME. Conditions: for half-life at 0.19 mg/ml: fresh human plasma, hydrolysis of ester to R-55, human plasma, read-out: T1/2 in human plasma; for half-life at 0.19 mg/ml / % L-207 (hydrolysis of L-207 to R-55): 37° C.; for rate of hydrolysis (in words): human and rat plasma, comparison of acyl moieties; for % L-207 (hydrolysis of L-207 to R-55): human plasma. The protocol:
as §1

Data set [4] is described as follows: Solubility of L-207 in solvents. Format: physicochemical. An excerpt: The compound was soluble in dimethylformamide, dimethyl sulfoxide, tetrahydrofuran, chloroform, dichloromethane, and HCl in diethyl ether, and non-soluble in water.
Data set [5] concerns the target D4.4 type dopamine receptor (Homo sapiens (Human), UniProt P21917). The experiment in a line: Competitive binding to D4.4 receptor ([3H]-YM-09151-2). Conditions: human recombinant receptor in CHO cells, [3H]-YM-09151-2 0.3 nM. The protocol: R-55 (which comprises a 3-hydroxyphenyl moiety) and its isomers L-221 (comprising a 4-hydroxyphenyl moiety) and L-238 (comprising a 2-hydroxyphenyl moiety) were assayed for competitive binding to D2 SHORT and D4.4 type dopamine receptors, in order to assess their efficacy for treating sexual disorders. Both receptor types are expressed as human recombinant proteins in CHO cells, as described, for example, in Jarvis et al. (1973); Van Tol et al. (1991) and Van Tol et al. (1992).
Determination of binding to D4.4 receptor was performed using [^3H]-YM-09151-2 (70-87 Ci/mmol, 0.3 nM), as a radioligand, in the presence of various concentrations of the tested compound. Reactions were carried out in 50 mM TRIS-HCl (pH 7.4) containing 5 mM MgCl2, 5 mM EDTA, 5 mM KCl and 1.5 mM CaCl2, for 60 minutes at 22° C. The reaction was terminated by rapid vacuum filtration onto glass fiber filters. Radioactivity trapped onto the filters was determined (counted) and compared to control values in order to accurately evaluate any interaction of the tested compound(s) with the cloned dopamine D4.4 binding site.

What is called inhibition is the share of the control response that was lost under treatment. Low values mean a weak effect, high ones a strong effect. The IC50 is the concentration at which inhibition is half-maximal.

Sequence of PARP-1 (P09874 whole entry): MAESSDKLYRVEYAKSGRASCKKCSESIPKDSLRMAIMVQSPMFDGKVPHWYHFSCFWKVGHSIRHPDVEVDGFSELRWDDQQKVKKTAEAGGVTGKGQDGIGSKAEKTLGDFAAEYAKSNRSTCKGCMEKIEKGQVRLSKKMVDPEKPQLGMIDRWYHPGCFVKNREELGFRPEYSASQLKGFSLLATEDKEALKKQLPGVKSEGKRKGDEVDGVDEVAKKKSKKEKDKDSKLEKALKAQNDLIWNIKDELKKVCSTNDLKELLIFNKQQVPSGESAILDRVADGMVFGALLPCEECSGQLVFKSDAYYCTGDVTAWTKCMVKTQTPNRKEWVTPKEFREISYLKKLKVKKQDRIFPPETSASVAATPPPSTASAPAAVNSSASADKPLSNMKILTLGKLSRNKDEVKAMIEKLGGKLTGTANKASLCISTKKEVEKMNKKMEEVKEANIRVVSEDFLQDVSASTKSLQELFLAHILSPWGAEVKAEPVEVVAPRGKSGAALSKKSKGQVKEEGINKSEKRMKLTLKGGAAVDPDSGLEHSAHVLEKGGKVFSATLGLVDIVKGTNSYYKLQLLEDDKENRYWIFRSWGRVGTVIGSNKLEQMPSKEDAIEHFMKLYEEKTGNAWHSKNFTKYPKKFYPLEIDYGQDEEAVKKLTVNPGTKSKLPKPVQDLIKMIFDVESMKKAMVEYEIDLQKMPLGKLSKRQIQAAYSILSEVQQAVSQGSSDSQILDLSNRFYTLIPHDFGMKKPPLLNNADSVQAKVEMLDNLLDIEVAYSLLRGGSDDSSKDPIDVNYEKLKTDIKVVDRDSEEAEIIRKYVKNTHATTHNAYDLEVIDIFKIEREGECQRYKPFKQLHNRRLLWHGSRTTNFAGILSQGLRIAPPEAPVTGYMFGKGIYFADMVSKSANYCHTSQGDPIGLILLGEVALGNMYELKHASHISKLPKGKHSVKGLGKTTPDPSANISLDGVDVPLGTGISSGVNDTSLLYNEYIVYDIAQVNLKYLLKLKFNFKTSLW
Sequence of D4.4 type dopamine receptor (P21917 whole entry): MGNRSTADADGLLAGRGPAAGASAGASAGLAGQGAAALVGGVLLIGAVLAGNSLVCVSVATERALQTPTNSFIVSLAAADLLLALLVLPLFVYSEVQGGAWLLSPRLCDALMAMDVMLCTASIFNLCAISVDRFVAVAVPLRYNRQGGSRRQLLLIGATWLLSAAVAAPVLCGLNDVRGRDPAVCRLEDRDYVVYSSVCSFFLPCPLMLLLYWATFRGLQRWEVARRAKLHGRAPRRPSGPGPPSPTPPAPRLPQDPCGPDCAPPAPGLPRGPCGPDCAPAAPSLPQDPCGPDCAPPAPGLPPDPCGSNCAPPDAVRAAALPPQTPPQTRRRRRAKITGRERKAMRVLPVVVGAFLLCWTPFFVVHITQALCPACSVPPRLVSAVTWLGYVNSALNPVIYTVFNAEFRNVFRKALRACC

`NC(=O)c1cccc(N)c1` [Compound 3-AB, 3-Aminobenzamide, reference compound] returned an inhibition at 5 µM in data set [1] (5 μM) of 21%. In data set [1] (10 μM), this compound had an inhibition at 10 µM of 40%.

On to `CCC(=O)Oc1cccc(N2CCN(Cc3nc4ccccc4c(=O)[nH]3)CC2)c1` [Compound L-128], for which the half-life at 0.19 mg/ml is 0.31 min in data set [2] and 10 min in data set [3]. In data set [3], the “rate of hydrolysis (in words)” value was “relatively rapid hydrolysis”.

Regarding `COc1ccc(C(=O)Oc2cccc(N3CCN(Cc4nc5ccccc5c(=O)[nH]4)CC3)c2)cc1` [Compound L-162], in data set [2], the half-life at 0.19 mg/ml is 54 min. Besides, in data set [3], the half-life at 0.19 mg/ml came to 377 min and the “rate of hydrolysis (in words)” value is recorded as “slower hydrolysis than exhibited by the corresponding non-substituted aryl”.

On to `Cc1ccc(S(=O)(=O)Oc2cccc(N3CCN(Cc4nc5ccccc5c(=O)[nH]4)CC3)c2)cc1` [Compound L-163], for which, in data set [2], the half-life at 0.19 mg/ml is over 1000 min. Also, in data set [3], the half-life at 0.19 mg/ml is over 1000 min and the “rate of hydrolysis (in words)” value is recorded as “considerably slower hydrolysis than carboxyl esters”.

For the compound `CS(=O)(=O)Oc1cccc(N2CCN(Cc3nc4ccccc4c(=O)[nH]3)CC2)c1` [Compound L-164], in data set [2], the half-life at 0.19 mg/ml was over 1000 min. In data set [3], the half-life at 0.19 mg/ml is over 1000 min and the “rate of hydrolysis (in words)” value was “considerably slower hydrolysis than carboxyl esters”.

For the compound `N#Cc1cccc(C(=O)Oc2cccc(N3CCN(Cc4nc5ccccc5c(=O)[nH]4)CC3)c2)c1` [Compound L-166], the half-life at 0.19 mg/ml in data set [2] came out at 7.1 min; in data set [3] it was 480 min.

With `O=C(Oc1cccc(N2CCN(Cc3nc4ccccc4c(=O)[nH]3)CC2)c1)C12CC3CC(CC(C3)C1)C2` [Compound L-167], the half-life at 0.19 mg/ml in data set [2] stood at 58 min. Besides, in data set [3], the half-life at 0.19 mg/ml amounted to 750 min and the “rate of hydrolysis (in words)” value is “relatively slow hydrolysis”.

Regarding `O=C(Oc1cccc(N2CCN(Cc3nc4ccccc4c(=O)[nH]3)CC2)c1)C1CCCCC1` [Compound L-169], the half-life at 0.19 mg/ml stood at 4.7 min in data set [2] and 41 min in data set [3]. Besides, the “rate of hydrolysis (in words)” value in data set [3] was “relatively rapid hydrolysis”.

On to `COc1ccc(CC(=O)Oc2cccc(N3CCN(Cc4nc5ccccc5c(=O)[nH]4)CC3)c2)cc1` [Compound L-170], for which the half-life at 0.19 mg/ml in data set [2] was determined as 7.5 min; in data set [3] it was 280 min.

As to `CCOc1ccc(C(=O)Oc2cccc(N3CCN(Cc4nc5ccccc5c(=O)[nH]4)CC3)c2)cc1` [Compound L-173], in data set [2], the half-life at 0.19 mg/ml was determined as 16.5 min. In addition, in data set [3], the half-life at 0.19 mg/ml is over 1000 min and the “rate of hydrolysis (in words)” value is reported as “considerably slower hydrolysis”.

For `COc1ccccc1C(=O)Oc1cccc(N2CCN(Cc3nc4ccccc4c(=O)[nH]3)CC2)c1` [Compound L-174], the half-life at 0.19 mg/ml was 52 min in data set [2] and 455 min in data set [3]. The “rate of hydrolysis (in words)” value in data set [3] is recorded as “slower hydrolysis than exhibited by the corresponding non-substituted aryl”.

As for `Cc1ccccc1C(=O)Oc1cccc(N2CCN(Cc3nc4ccccc4c(=O)[nH]3)CC2)c1` [Compound L-199], the half-life at 0.19 mg/ml in data set [2] was 44 min; in data set [3], over 1000 min.

For the compound `O=C(Oc1cccc(N2CCN(Cc3nc4ccccc4c(=O)[nH]3)CC2)c1)c1ccccc1` [Compound L-207], the values for the half-life at 0.19 mg/ml in data set [2] and in data set [3] were 29 min and 134 min, respectively. For the same compound, the “% L-207 (hydrolysis of L-207 to R-55)” value in data set [2] (0 minutes) is reported as 99.49%; in data set [2] (15 minutes), 74.08%; in data set [2] (30 minutes) it was 47.73%; in data set [2] (60 minutes) it was 6.61%; in data set [2] (90 minutes), 0.76%; in data set [2] (120 minutes), 0.41%. The “% L-207 (hydrolysis of L-207 to R-55)” value in data set [3] (10 minutes) was determined as 97.54%; in data set [3] (30 minutes), 89.21%; in data set [3] (60 minutes), 77.11%; in data set [3] (90 minutes), 64.67%; in data set [3] (120 minutes) it was 52.91%. For the same compound, the “solubility in organic solvents” value in data set [4] (dimethylformamide, dimethyl sulfoxide, tetrahydrofuran, chloroform, dichloromethane, HCl in diethyl ether) was “soluble”. Further, the solubility in water result in data set [4] (water) was “non-soluble”. In data set [3], the “rate of hydrolysis (in words)” value was “relatively rapid hydrolysis”.

For `O=C(Oc1cccc(N2CCN(Cc3nc4ccccc4c(=O)[nH]3)CC2)c1)c1ccc(F)cc1` [Compound L-209], the half-life at 0.19 mg/ml in data set [2] was found to be 35 min. In data set [3], the half-life at 0.19 mg/ml amounted to 470 min and the “rate of hydrolysis (in words)” value is on record as “slower hydrolysis than exhibited by the corresponding non-substituted aryl”.

In the case of `O=c1[nH]c(CN2CCN(c3ccc(O)cc3)CC2)nc2ccccc12` [Compound L-221, 2-((4-(4-hydroxyphenyl)piperazin-1-yl)methyl)quinazolin-4-one], in data set [5], the IC50 was about 30 µM.
